Measured values reported in patent US20100168143A1, “QUINAZOLINE DERIVATIVES” (ASTRAZENECA AB, priority 2006, published 2010).

What was measured:
[1] = tested on: phosphohistone H3 levels in drug-resistant MCF7-ADR human breast tumour cells; assay: In vitro drug-resistant cell phenotype and substrate phosphorylation assay (MCF7-ADR); assay type: cell-based; conditions: NCI/ADR-RES, 24 hours of treatment, read-out: EC50 for inhibition of phosphohistone H3 levels
Protocol: (d) In Vitro Drug-Resistant Cell Phenotype and Substrate Phosphorylation Assay.
This assay is used to determine the cellular effects of compounds on drug-resistant MCF7-ADR human breast tumour cells in vitro.
Compounds typically cause inhibition of levels of phosphohistone H3 and an increase in the nuclear area of treated cells.
0.8×10^4 MCF7-ADR cells per well were plated in 100 μl DMEM media (containing 10% FCS (foetal calf serum) and 1% glutamine) in costar 96 well plates and left overnight at 37° C. and 5% CO2 to adhere.
All other procedures are identical to those for the above assay using SW620 cells.
The compounds of the invention generally have EC50 values for inhibition of phosphohistone H3 levels of […], particularly 0.5 nM to 1 μM and more particularly 0.5 nM to 0.5 μM.

aurora B kinase = aurora B kinase (Homo sapiens, UniProt Q96GD4); assay: In vitro aurora B kinase inhibition test; assay type: biochemical; conditions: aurora B-INCENP enzyme; 33P-ATP filter assay, 60 minutes; read-out: IC50 (50% inhibition of enzyme activity), aurora B
Source text: (b) In Vitro Aurora B Kinase Inhibition Test
This assay determines the ability of a test compound to inhibit serine-threonine kinase activity. DNA encoding aurora B may be obtained by total gene synthesis or by cloning. This DNA may then be expressed in a suitable expression system to obtain polypeptide with serine-threonine kinase activity. In the case of aurora B, the coding sequence was isolated from cDNA by polymerase chain reaction (PCR) and cloned into the pFastBac system in a manner similar to that described above for aurora A (i.e. to direct expression of a 6-histidine tagged aurora B protein).
For the large scale expression of aurora B kinase activity, Sf21 insect cells were grown at 28° C. in TC100 medium supplemented with 10% foetal calf serum (Viralex) and 0.2% F68 Pluronic (Sigma) on a Wheaton roller rig at 3 r.p.m. When the cell density reached 1.2×10^6 cells ml^−1 they were infected with plaque-pure aurora B recombinant virus at a multiplicity of infection of 1 and harvested 48 hours later. All subsequent purification steps were performed at 4° C. […]

Sequence of aurora B kinase (Q96GD4 whole entry): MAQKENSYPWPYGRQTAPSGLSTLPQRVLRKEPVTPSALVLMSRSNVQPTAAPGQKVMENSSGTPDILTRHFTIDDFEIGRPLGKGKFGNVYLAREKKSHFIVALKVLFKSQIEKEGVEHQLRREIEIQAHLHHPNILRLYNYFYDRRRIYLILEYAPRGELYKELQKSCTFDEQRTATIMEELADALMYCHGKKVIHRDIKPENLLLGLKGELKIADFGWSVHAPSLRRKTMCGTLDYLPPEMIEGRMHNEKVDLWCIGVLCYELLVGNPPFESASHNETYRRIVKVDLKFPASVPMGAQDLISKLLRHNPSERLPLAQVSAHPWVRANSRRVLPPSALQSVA
Sequence of aurora B kinase (Q9NQS7 826-918 partner limits assumed): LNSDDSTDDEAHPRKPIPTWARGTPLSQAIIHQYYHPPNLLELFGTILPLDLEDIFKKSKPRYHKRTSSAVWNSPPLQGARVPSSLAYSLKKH

EC50 [1]	IC50 (aurora B kinase)	Compound
< 1 nM	1.4 nM	CCOc1cc(OC[C@H]2CCCCN2)c2c(Nc3cnn(CC(=O)Nc4cccc(F)c4F)c3)ncnc2c1 [compound 1]
20 nM	1.4 nM	COc1cc(OC[C@H]2CCCCN2)c2c(Nc3cnn(CC(=O)Nc4cccc(F)c4F)c3)ncnc2c1 [compound 2, N-(2,3-difluorophenyl)-2-[4-({7-methoxy-5-[(2R)-piperidin-2-ylmethoxy]quinazolin-4-yl}amino)-1H-pyrazol-1-yl]acetamide]
120 nM	–	COc1cc(OC[C@H]2CCCN2)c2c(Nc3cnn(CC(=O)Nc4cccc(F)c4F)c3)ncnc2c1 [Prior art compound (I), reference compound]
